# Laboratory results: US8188098B2, “GPR119 receptor agonists” (Hoffmann-La Roche Inc., priority 2008, dated 2012)
# Molecular target: T1, GPR119 receptor (Mesocricetus auratus, UniProt A0A1U8CD06)
# T1 construct: which endogenously express the GPR119 receptor; host or cells: HIT-T15 hamster pancreatic islet cells
# T1 sequence (A0A1U8CD06 1-334): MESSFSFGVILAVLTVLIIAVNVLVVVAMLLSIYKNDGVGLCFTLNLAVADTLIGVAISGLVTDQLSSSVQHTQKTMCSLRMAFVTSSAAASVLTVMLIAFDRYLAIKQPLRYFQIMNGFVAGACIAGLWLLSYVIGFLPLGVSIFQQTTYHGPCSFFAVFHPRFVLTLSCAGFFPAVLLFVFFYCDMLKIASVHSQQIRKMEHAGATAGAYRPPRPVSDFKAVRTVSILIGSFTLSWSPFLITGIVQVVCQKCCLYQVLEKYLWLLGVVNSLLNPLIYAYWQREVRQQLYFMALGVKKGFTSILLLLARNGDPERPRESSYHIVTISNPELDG
# Assay: cAMP assay in HIT-T15 hamster pancreatic islet cells (functional agonist activity)
# Type: cell-based
# Details: HIT-T15 cells endogenously expressing GPR119; 30 min at 25° C.; intracellular cAMP
# Procedure, shortened: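 HIT-T15 cells (endogenous GPR119), 9000/well, exposed to agonist 30 min at 25° C with 0.5 mM IBMX and 0.5 mg/ml BSA. Lysate cAMP measured by chemiluminescent competitive immunoassay; EC50 from curve fit.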
row,Structure (SMILES),EC50
1,"CC(C)(C)OC(=O)N1CCC(n2ncc3c(Oc4cc(F)cc(C(F)(F)F)c4)ncnc32)CC1 [Example 53, 4-[4-(3-Fluoro-5-trifluoromethyl-phenoxy)-pyrazolo[3,4-d]pyrimidin-1-yl]-piperidine-1-carboxylic acid tert-butyl ester]",0.49 µM
2,"COc1ccccc1CN1CCC(n2ncc3c(Oc4ccc(S(C)(=O)=O)cc4)ncnc32)CC1 [Example 165, 4-(4-Methanesulfonyl-phenoxy)-1-[1-(2-methoxy-benzyl)-piperidin-4-yl]-1H-pyrazolo[3,4-d]pyrimidine]",1.4 µM
3,"CC(C)c1noc(N2CCC(n3ncc4c(Oc5ccc(S(C)(=O)=O)cc5)ncnc43)CC2)n1 [Example 126, 1-[1-(3-Isopropyl-[1,2,4]oxadiazol-5-yl)-piperidin-4-yl]-4-(4-methanesulfonyl-phenoxy)-1H-pyrazolo[3,4-d]pyrimidine]",0.43 µM
4,"Cn1nc(Oc2ncnc3c2cnn3C2CCN(C(=O)OC(C)(C)C)CC2)ccc1=O [Example 102, 4-[4-(1-Methyl-6-oxo-1,6-dihydro-pyridazin-3-yloxy)-pyrazolo[3,4-d]pyrimidin-1-yl]-piperidine-1-carboxylic acid tert-butyl ester]",0.47 µM
5,"CS(=O)(=O)c1ccc(Oc2ncnc3c2cnn3C2CCN(Cc3ccc(F)cc3)CC2)cc1 [Example 159, 1-[1-(4-Fluoro-benzyl)-piperidin-4-yl]-4-(4-methanesulfonyl-phenoxy)-1H-pyrazolo[3,4-d]pyrimidine]",0.2 µM
6,"CC(C)(C)OC(=O)N1CCC(n2ncc3c(Oc4ccc(OC(F)(F)F)cc4)ncnc32)CC1 [Example 42, 4-[4-(4-Trifluoromethoxy-phenoxy)-pyrazolo[3,4-d]pyrimidin-1-yl]-piperidine-1-carboxylic acid tert-butyl ester]",1.8 µM
7,"CS(=O)(=O)c1ccc(Oc2ncnc3c2cnn3C2CCN(Cc3nccs3)CC2)cc1 [Example 169, 4-(4-Methanesulfonyl-phenoxy)-(1-thiazol-2-ylmethyl-piperidin-4-yl)-1H-pyrazolo[3,4-d]pyrimidine]",3.6 µM

# Continued, values first:
row,EC50,Structure (SMILES)
1,0.024 µM,"CC(C)(C)OC(=O)N1CCC(n2ncc3c(Oc4ccc(S(C)(=O)=O)cc4)nc(Cl)nc32)CC1 [Example 172, 4-[6-Chloro-4-(4-methanesulfonyl-phenoxy)-pyrazolo[3,4-d]pyrimidin-1-yl]-piperidine-1-carboxylic acid tert-butyl ester]"
2,0.031 µM,"CS(=O)(=O)c1ccc(Oc2ncnc3c2cnn3C2CCN(C(=O)OC3CCCC3)CC2)c(F)c1 [Example 120, 4-[4-(2-Fluoro-4-methanesulfonyl-phenoxy)-pyrazolo[3,4-d]pyrimidin-1-yl]-piperidine-1-carboxylic acid cyclopentyl ester]"
3,0.53 µM,"CC(C)(C)OC(=O)N1CCC(n2ncc3c(Oc4ccc(F)cc4)ncnc32)CC1 [Example 34, 4-[4-(4-Fluoro-phenoxy)-pyrazolo[3,4-d]pyrimidin-1-yl]-piperidine-1-carboxylic acid tert-butyl ester]"
4,1.5 µM,"CC(C)(C)OC(=O)N1CCC(n2ncc3c(Nc4ccc(S(C)(=O)=O)cc4)ncnc32)CC1 [Example 5, 4-[4-(4-Methanesulfonyl-phenylamino)-pyrazolo[3,4-d]pyrimidin-1-yl]-piperidine-1-carboxylic acid tert-butyl ester]"
5,0.083 µM,"CC(C)(C)OC(=O)N1CCC(n2ncc3c(Oc4ccc(C(F)(F)F)cc4Cl)ncnc32)CC1 [Example 54, 4-[4-(2-Chloro-4-trifluoromethyl-phenoxy)-pyrazolo[3,4-d]pyrimidin-1-yl]-piperidine-1-carboxylic acid tert-butyl ester]"
6,0.15 µM,"CC(C)(C)OC(=O)N1CCC(n2ncc3c(Oc4ccc(Cl)c(C(F)(F)F)c4)ncnc32)CC1 [Example 55, 4-[4-(4-Chloro-3-trifluoromethyl-phenoxy)-pyrazolo[3,4-d]pyrimidin-1-yl]-piperidine-1-carboxylic acid tert-butyl ester]"
